Experimental findings from patent US20260258085A1, “NOVEL DECAPEPTIDE AND USE THEREOF IN ANTIBACTERIAL” (METHYCURE BIOTECH CORP., priority 2023, published 2026) are described below.

Positions of bridges follow the written chain, without caps; N, C: chain ends. Non-standard residues stand in square brackets, D forms with d. Residues, ends and D or L forms follow the SMILES beside them. *: point of attachment. X1 = CC[C@H](C)CCCCC(=O)*; dDab = NCC[C@@H](N)C(=O)O; Dab = NCC[C@H](N)C(=O)O

In test [1] the test system is polymyxin-resistant Acinetobacter baumannii. The experiment in a line: Efficacy in neutropenic mice with thigh infection. The test is classed as in vivo. The settings on record: neutropenic CD1 mice, 20 mg/kg subcutaneous at 2, 8, 14, 24 hours post-infection, endpoint 24 hours. From the text:
All mice used in this part passed the ethical review of animal research at Nanjing University. To avoid the influence of the mouse's innate immune system on the intrinsic activity of the antimicrobial peptide, we constructed a neutropenic mouse model. This experiment used 6-week-old CD1 female mice (20-25 g). Mice were randomly housed in individually ventilated cages and maintained according to the standards of the Association for Assessment and Accreditation of Laboratory Animal Care International. The room was set to a 12-hour light cycle, temperature of 21° C., and humidity of 30%. […]
At 2, 8, 14, and 24 hours post-infection, mice were subcutaneously injected with 100 μL of vehicle (0.9% saline), Polymyxin E (Colistin) (20 mg/kg), or the antimicrobial peptide (20 mg/kg). […] All mice were closely monitored post-infection for signs of illness. Any abnormal clinical symptoms were recorded. […] Thigh muscles were processed aseptically, weighed, homogenized, and plated for CFU counts on MH agar containing 50 μg/mL gentamicin to quantify the bacterial burden. Efficacy was determined by the reduction in bacterial burden in the thighs compared to the […] control group. All graphical data were statistically analyzed using GraphPad Prism software (Prism v.9). Differences in burden between test and control groups were assessed using one-way analysis. […]

In a further test the test system is E. coli. The test is described as follows: Minimum inhibitory concentration test against common Gram-negative bacteria. The settings on record: clinical isolate, 37° C., 16 hours, visual reading. Type of test: cell-based, Escherichia coli. How it is done: (§1) The pathogenic bacteria used for testing were all sourced from the intensive care unit of Gulou Hospital, isolated and cultured from clinical samples of patients with severe pneumonia. The strain species were identified by the Microbiology Laboratory of Gulou Hospital. The Gram-negative bacteria here include Escherichia coli, Pseudomonas aeruginosa, Acinetobacter baumannii, Klebsiella pneumoniae, etc.
(§2) A single colony of the test bacteria was inoculated into 5 ml of medium and cultured overnight to saturation. 10 μL of bacterial culture was aspirated and added to 990 μL of fresh medium, mixed well, to obtain a 100-fold diluted bacterial suspension. Then, 20 μL of the 100-fold diluted bacterial suspension was aspirated and added to 980 μL of fresh medium, mixed well. The bacteria obtained at this point were diluted 5000-fold.
(§3) The antimicrobial peptide was dissolved in Dimethyl sulfoxide (DMSO) to obtain a stock solution with a concentration of 12.8 mg/mL. Using DMSO, a two-fold serial dilution was performed for 10 consecutive times.
Add the 11 gradients of antimicrobial peptide diluted in step 1.1.2 to a 96-well plate, respectively, with the last well containing the same volume of DMSO. Then, add 48 μL of fresh medium to each well. Subsequently, add the 5000-fold diluted bacteria from step 1.1.1 to each well. Mix well. Incubate at 37° C. for 16 hours. […]

The next test deals with Acinetobacter baumannii. The test is described as above. Conditions: clinical isolate, 37° C., 16 hours, visual reading. Type of test: cell-based. The procedure:
as §1, §2, §3
(§4) Add the 11 gradients of antimicrobial peptide diluted in step 1.1.2 to a 96-well plate, respectively, with the last well containing the same volume of DMSO. Then, add 48 μL of fresh medium to each well. Subsequently, add the 5000-fold diluted bacteria from step 1.1.1 to each well. Mix well. Incubate at 37° C. for 16 hours. Visually determine the concentration at which bacterial growth begins to be inhibited; this is the minimum inhibitory concentration (MIC).

A further test has as its system Klebsiella pneumoniae. The description is as above. The settings on record: clinical isolate, 37° C., 16 hours, visual reading. The test is classed as cell-based. The procedure: as §1, §2, §3, §4
The next test has as its system Pseudomonas aeruginosa. Described as above. The test is classed as cell-based. Conditions: clinical isolate, 37° C., 16 hours, visual reading. How it is done:
as §1, §2, §3, §4

Test [2] concerns P. aeruginosa containing the MCR-1 plasmid. The test is classed as cell-based, Pseudomonas aeruginosa. The settings on record: for Minimum Inhibitory Concentration, P. aeruginosa 1: strain 1, MCR-1 plasmid; for Minimum Inhibitory Concentration, P. aeruginosa 2: strain 2, MCR-1 plasmid. The procedure: (§5) The polymyxin-resistant pathogenic bacteria used for testing were all sourced from the hospital intensive care unit, isolated and cultured from clinical samples of patients with severe pneumonia. The strain species were identified by the hospital microbiology laboratory, and the presence of the mcr-1 gene in the strains was confirmed by high-throughput sequencing.
(§6) The culture procedure fully referenced Example 1.
(§7) Each bacterial species in the table was tested using 2 strains, denoted as “1” and “2” respectively.

For test [3], the system named is E. coli containing the MCR-1 plasmid. Type of test: cell-based, Escherichia coli. The settings on record: for Minimum Inhibitory Concentration, E. coli 1: strain 1, MCR-1 plasmid; for Minimum Inhibitory Concentration, E. coli 2: strain 2, MCR-1 plasmid. How it is done:
as §5, §6, §7

Test [4] has as its system A. baumannii containing the MCR-1 plasmid. Type of test: cell-based, Acinetobacter baumannii. The settings on record: for Minimum Inhibitory Concentration, A. baumannii 1: strain 1, MCR-1 plasmid; for Minimum Inhibitory Concentration, A. baumannii 2: strain 2, MCR-1 plasmid. The procedure:
as §5, §6, §7

Test [5] deals with K. pneumoniae containing the MCR-1 plasmid. The test is classed as cell-based, Klebsiella pneumoniae. The settings on record: for Minimum Inhibitory Concentration, K. pneumoniae 1: strain 1, MCR-1 plasmid; for Minimum Inhibitory Concentration, K. pneumoniae 2: strain 2, MCR-1 plasmid. How it is done:
as §5, §6, §7

Turning to `CC[C@H](C)CCCCC(=O)N[C@@H](CCN)C(=O)N[C@H](C(=O)N[C@H](CCN)C(=O)N[C@H]1CCNC(=O)[C@H](CC(C)C)NC(=O)[C@H](CCN)NC(=O)[C@H](CCN)NC(=O)[C@H]([C@@H](C)CC)NC(=O)[C@@H](CC(C)C)NC(=O)[C@H](CCN)NC1=O)[C@@H](C)O` [Antimicrobial Peptide, {6-ME-Octanoic acid}-{Dab}-{Thr}-{D-Dab}-{Dab}-{Dab}-{D-Leu}-{Ile}-{Dab}-{Dab}-{Leu}] (X1-[Dab]T[dDab][Dab][Dab][dL]I[Dab][Dab]L; lactam 4-C), the “bacterial burden in thighs (CFU)” value in [1] was “significant reduction in colony-forming units (CFU)”. Moreover, the “Minimum Inhibitory Concentration (MIC)” value with E. coli came out at 4 µg/mL. For the same compound, in the test with Acinetobacter baumannii, the “Minimum Inhibitory Concentration (MIC)” value was found to be 16 µg/mL. Moreover, in the test on Klebsiella pneumoniae, the “Minimum Inhibitory Concentration (MIC)” value is 8 µg/mL. The “Minimum Inhibitory Concentration (MIC)” value in the test on Pseudomonas aeruginosa came to 4 µg/mL. In test [2], the “Minimum Inhibitory Concentration, P. aeruginosa 1” value stood at 2 µg/mL and the “Minimum Inhibitory Concentration, P. aeruginosa 2” value turned out to be 1 µg/mL. In test [3], the “Minimum Inhibitory Concentration, E. coli 1” value came out at 2 µg/mL and the “Minimum Inhibitory Concentration, E. coli 2” value was 2 µg/mL. Moreover, in [4], the “Minimum Inhibitory Concentration, A. baumannii 1” value stood at 4 µg/mL and the “Minimum Inhibitory Concentration, A. baumannii 2” value was found to be 2 µg/mL. In [5], the “Minimum Inhibitory Concentration, K. pneumoniae 1” value worked out at 1 µg/mL and the “Minimum Inhibitory Concentration, K. pneumoniae 2” value amounted to 2 µg/mL.

On to `CC[C@H](C)CCCCC(=O)N[C@@H](CCN)C(=O)N[C@H](C(=O)N[C@@H](CCN)C(=O)N[C@H]1CCNC(=O)[C@H]([C@@H](C)O)NC(=O)[C@H](CCN)NC(=O)[C@H](CCN)NC(=O)[C@H](CC(C)C)NC(=O)[C@@H](CC(C)C)NC(=O)[C@H](CCN)NC1=O)[C@@H](C)O` [Colistin, reference compound] (X1-[Dab]T[Dab][Dab][Dab][dL]L[Dab][Dab]T; lactam 4-C), for which the “bacterial burden in thighs (CFU)” value in [1] is reported as “did not reduce the count of Acinetobacter baumannii”. Moreover, in test [2], the “Minimum Inhibitory Concentration, P. aeruginosa 1” value is 64 µg/mL and the “Minimum Inhibitory Concentration, P. aeruginosa 2” value stood at 128 µg/mL. Also, in test [3], the “Minimum Inhibitory Concentration, E. coli 1” value worked out at 128 µg/mL and the “Minimum Inhibitory Concentration, E. coli 2” value amounted to 256 µg/mL. In addition, in test [4], the “Minimum Inhibitory Concentration, A. baumannii 1” value amounted to 128 µg/mL and the “Minimum Inhibitory Concentration, A. baumannii 2” value was 128 µg/mL. Also, in test [5], the “Minimum Inhibitory Concentration, K. pneumoniae 1” value came to 64 µg/mL and the “Minimum Inhibitory Concentration, K. pneumoniae 2” value came to 128 µg/mL.
